Results on 15 compounds are retold here after patent US5935977A, “Substituted vinyl pyridine derivative and drugs containing the same” (SS Pharmaceutical Co., Ltd., priority 1996, dated 1999).

Data set [1] has as its system PDE IV. Particulars: PDE IV vs other PDE isozymes; cited from earlier work.
A further data set relates to TNF-α. The data set is described as follows: TNF-α Production Inhibition Test in LPS-treated U 937 cells. The data set is classed as cell-based. As to conditions: U 937 cells differentiated with PMA; LPS 10 ng/ml, 6 hours; human TNF-α ELISA. The procedure:
Human promonocytic leukemia cells (U 937 cells, 1×10^5 cells/400 μl) were inoculated on a 24-well culture plate. By use of an RPMI 1640 culture liquid (supplemented with 10% FCS) containing 50 nM PMA, the cells were incubated for 72 hours, to thereby induce differentiation into monocyte/macrophage (see Sarkiz Daniel-Issakani, Allem M. Spiegel and Berta Strulovici (1989), J. Biol. Chem. 264, p20240-20247). Subsequently, the culture supernatant was discarded, and an RPMI 1640 culture liquid (supplemented with 10% FCS) containing 10 ng/ml of LPS (lipopolysaccharide; E. coli, 0111:B4) was added. Each compound was added one hour before the LPS treatment, so as to achieve concentrations of 100 μM, 10 μM, 1 μM, and 0.1 μM. Six hours after addition of LPS, the quantity of produced TNF-α in the supernatant was measured by use of a human TNF-α ELISA kit (Amersham, code RPN 2758), For respective doses of each compound, % control was calculated, wherein the quantity of TNF-α produced when LPS treatment was performed and the compound was not added was considered 100%. Further, based on primary regression curves, there were calculated IC50 values in terms of TNF-α production inhibitory activity for respective compounds.
In general terms: An ELISA detects its analyte on a solid surface through an enzyme-linked reagent.

A further data set has as its system PDE III. Nature of the data set: PDE Inhibitory Activity Test, PDE III. Format: biochemical. Particulars: human platelet PDE III; substrate 1 μM; 20 min at 30° C.
Data set [2] concerns PDE IV. The data set is described as follows: PDE Inhibitory Activity Test, PDE IV. Format: biochemical. Particulars: PDE IV from human histocytic lymphoma (U-937); substrate 1 μM; 20 min at 30° C.
The target of another data set is T1, PDE V (Homo sapiens, UniProt O76074).
T1 construct: isolated from human tissue and purified in accordance with the method described in literature; from tissue; host or cells: human platelets
The data set is described as follows: PDE Inhibitory Activity Test, PDE V. Format: biochemical. Particulars: human platelet PDE V; substrate 1 μM; 20 min at 30° C. The procedure: A variety of PDE isozymes shown below were isolated from human tissue and purified in accordance with the method described in literature.
H. Hidaka, et al., Bioph. Bioch. Acta, (1976), 429, p485
C. D. Nicholson, et al., Trends Pharmacol. Sci., (1991), 12, p19.
The PDE activity was determined through use of a modified two-step assay method described by Hidaka et al. (Bioph. Bioch. Acta., (1976), 429, p485),
Briefly, [^3 H]cAMP and [^3 H]cGMP are hydrolyzed by their respective PDE isozymes to form [^3 H]5'-AMP and [^3 H]5'-GMP, respectively. Subsequently, [^3 H]5^1 -AMP and [^3 H]5^1 -GMP are transformed into [^3 H]adenosine and [^3 H]guanosine, respectively, due to the action of nucleotidases. Unreacted [^3 H]cAMP and [^3 H]cGMP are removed, causing them to bond to ion exchange resin, and the quantity of eluted [^3 H]adenosine or [^3 H]guanosine was counted in a liquid scintillation counter.
The diluted enzyme solution contains 50 mM Tris-HCl (pH 8.0), 5 mM MgCl2, and 50 μg of bovine serum albumin, wherein the concentrations represent final concentrations. The substrate concentration is 1 μM. The concentration of each test compound varies between 0.1 nM and 100 μM. Each test sample is incubated for 20 minutes at 30° C., and the PDE reaction is terminated by boiling for 2 minutes. The nucleotidase reaction was induced by adding snake venom nucleotidase to the above-described reaction mixture and incubating the resultant mixture for 20 minutes at 30° C.

Another data set has as its system PDE. As to conditions: cited from earlier work.
For data set [3] the following is noted: in vivo; cited from earlier work.

Take `CCCCOc1cc(CC2CNC(=O)N2)ccc1OC` (racemic) [Ro20-1724]: in the data set with PDE IV [1], the “potency at PDE IV relative to other PDE isozymes” value is 100 times.

Broadly, the IC50 is the concentration needed to halve the response being measured. A low value points to higher potency. Turning to `COc1cnc(/C(C#N)=C/c2c(Cl)cncc2Cl)cc1O[C@@H]1C[C@H]2CC[C@@H]1C2` (relative stereo) [Example 21, (Z)-3-(3,5-Dichloro-4-pyridyl)-2-[5-methoxy-4-(exo-2-norbornyloxy)-2-pyridyl]propenenitrile], half-maximal inhibition with TNF-α (IC50) was put at 13.3 µM.

Turning to `COc1cnc(/C(C#N)=C/c2c(Cl)cncc2Cl)cc1OC1CCCC1` [Example 1, (Z)-2-(4-cyclopentyloxy-5-methoxy-2-pyridyl)-3-(3,5-dichloro-4-pyridyl)propenenitrile], the IC50 with PDE III was 10 µM; in the data set with PDE IV [2] it was 0.0026 µM; on PDE V, over 100 µM; in the data set with TNF-α, 10.2 µM.

In the data set on TNF-α, `COc1cnc(/C(C#N)=C/c2ccncc2)cc1OC1CCCC1` [Example 4, (Z)-2-(4-Cyclopentyloxy-5-methoxy-2-pyridyl)-3-(4-pyridyl)propenenitrile] displayed an IC50 of 7.6 µM.

In the data set on TNF-α, `COc1cnc(/C(C#N)=C/c2ccnc3ccccc23)cc1OC1CCCC1` [Example 10, (Z)-2-(4-Cyclopentyloxy-5-methoxy-2-pyridyl)-3-(4-quinolyl)propenenitrile] yielded an IC50 of 10 µM.

Consider `COc1cnc(/C(C#N)=C/c2c(OC)cncc2OC)cc1OC1CCCC1` [Example 11, (Z)-2-(4-Cyclopentyloxy-5-methoxy-2-pyridyl)-3-(3,5-dimethoxy-4-pyridyl)propenenitrile], for which 5.5 µM corresponded to half-maximal inhibition in the data set on TNF-α (IC50).

`COc1cnc(/C(C#N)=C/c2c(Cl)cncc2Cl)cc1OCCc1ccccc1` [Example 14, (Z)-3-(3,5-Dichloro-4-pyridyl)-2-(5-methoxy-4-phenethyloxy-2-pyridyl)propenenitrile]: the values for the IC50 in the data set with PDE III, in the data set on PDE IV [2] and at PDE V were over 100 µM, 0.0059 µM and 5.6 µM, respectively.

With `COc1cnc(/C(C#N)=C/c2c(Cl)cncc2Cl)cc1OCCCc1ccccc1` [Example 15, (Z)-3-(3,5-Dichloro-4-pyridyl)-2-[5-methoxy-4-(3-phenylpropyloxy)-2-pyridyl]propenenitrile], the IC50 in the data set on PDE III worked out at 91 µM; in the data set with PDE IV [2] it was 0.0048 µM; at PDE V, 56 µM.

As to `CCCCOc1cc(/C(C#N)=C/c2c(Cl)cncc2Cl)ncc1OC` [Example 16, (Z)-2-(4-Butyloxy-5-methoxy-2-pyridyl)-3-(3,5-dichloro-4-pyridyl)propenenitrile], the IC50 in the data set on PDE III amounted to 15 µM; in the data set with PDE IV [2], 0.015 µM; against PDE V it was 31 µM; with TNF-α, 13.1 µM.

Take `CCC(CC)Oc1cc(/C(C#N)=C/c2c(Cl)cncc2Cl)ncc1OC` [Example 17, (Z)-3-(3,5-Dichloro-4-pyridyl)-2-[4-(1-ethylpropyloxy)-5-methoxy-2-pyridyl]propenenitrile]: the IC50 in the data set with PDE III was over 100 µM; in the data set on PDE IV [2], 0.036 µM; on PDE V, over 100 µM.

`CCOc1cnc(/C(C#N)=C/c2c(Cl)cncc2Cl)cc1OC1CCCC1` [Example 18, (Z)-2-(4-Cyclopentyloxy-5-ethoxy-2-pyridyl)-3-(3,5-dichloro-4-pyridyl)propenenitrile]: the IC50 is 18 µM in the data set on PDE III, 0.036 µM with PDE IV [2] and 12 µM against PDE V.

For the compound `COc1cnc(/C(C#N)=C/c2c(Cl)cncc2Cl)cc1OC1Cc2ccccc2C1` [Example 19, (Z)-3-(3,5-Dichloro-4-pyridyl)-2-[4-(2-indanyloxy)-5-methoxy-2-pyridyl]propenenitrile], the IC50 with PDE III was over 100 µM; in the data set with PDE IV [2] it was 0.00065 µM; against PDE V, over 100 µM; in the data set with TNF-α it was 2.9 µM.

As for `COc1cnc(/C(C#N)=C/c2c(Cl)cncc2Cl)cc1OC1CCOC1` (centres unmarked) [Example 20, (Z)-3-(3,5-Dichloro-4-pyridyl)-2-[5-methoxy-4-(tetrahydro-3-furanyloxy)-2-pyridyl]propenenitrile], the IC50 is 56 µM in the data set on PDE III, 0.011 µM with PDE IV [2], over 100 µM against PDE V and 7.1 µM with TNF-α.

Take `COc1ccc(C2CNC(=O)C2)cc1OC1CCCC1` (centres unmarked) [Rolipram, reference compound]: the IC50 was over 100 µM in the data set with PDE III, 5 µM with PDE IV [2] and 100 µM in the data set with TNF-α.

With `Cn1c(=O)c2[nH]cnc2n(C)c1=O` [theophylline], in the data set on PDE, the “PDE inhibition selectivity” value is “inhibits PDE non-selectively”. In addition, the “safety range” value in data set [3] is reported as “rather narrow”.
